Patent US11999716B2, “WDR5 inhibitors and modulators” (priority 2018, dated 2024)

Each compound was assayed on MV4:11 human cancer cell lines (assay: Cellular viability / anti-proliferative activity, CellTiter-Glo, 5 day protocol). Settings: Homo sapiens, MV4-11, 120 h, MV4:11 cells; 5 day incubation; CellTiter-Glo; mean of minimum two replicates; read-out: GI50 on cellular proliferation of MV4:11 human cancer cell lines.
Assay type: cell-based
In short: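 Compounds were tested over 22 two-fold dilutions starting at 30 μM in 0.3% DMSO, with 200 cells per well (7200 cells/mL). Viability was measured by CellTiter-Glo luminescence at day 5.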

| SMILES | GI50 |
| --- | --- |
| COc1ccnc(CN2CCc3c(cc(Cn4ccoc4=N)cc3-c3cn(C)nc3C(F)(F)F)C2=O)c1 [Example 84, 7-((2-Iminooxazol-3(2H)-yl)methyl)-2-((4-methoxypyridin-2-yl)methyl)-5-(1-methyl-3-(trifluoromethyl)-1H-pyrazol-4-yl)-3,4-dihydroisoquinolin-1(2H)-one] | < 50 nM |
| Cc1cc(CN2CCc3c(cc(Cn4ccn(C)c4=N)cc3-c3ccc(F)cc3C)C2=O)ccc1F [Example 31, 5-(4-Fluoro-2-methylphenyl)-2-(4-fluoro-3-methylbenzyl)-7-((2-imino-3-methyl-2,3-dihydro-1H-imidazol-1-yl)methyl)-3,4-dihydroisoquinolin-1(2H)-one] | < 50 nM |
| Cc1nccn1Cc1cc2c(c(-c3cn(C)nc3C(F)(F)F)c1)CCN(Cc1cccc(Br)c1)C2=O [Example 207, 2-(3-Bromobenzyl)-7-((2-methyl-1H-imidazol-1-yl)methyl)-5-(1-methyl-3-(trifluoromethyl)-1H-pyrazol-4-yl)-3,4-dihydroisoquinolin-1(2H)-one] | 75 nM |
| CCn1cc(-c2cc(Cn3cnc(C)c3)cc3c2CCN([C@H](c2cc(OC)ccn2)C2CC2)C3=O)c(C(F)(F)F)n1 [Example 244, (S)-2-(cyclopropyl(4-methoxypyridin-2-yl)methyl)-5-(1-ethyl-3-(trifluoromethyl)-1H-pyrazol-4-yl)-7-((4-methyl-1H-imidazol-1-yl)methyl)-3,4-dihydroisoquinolin-1(2H)-one] | 119 nM |

Next, values leading:

| GI50 | SMILES |
| --- | --- |
| 52 nM | COc1ccnc([C@H](C2CC2)N2CCc3c(cc(Cn4ccnc4C)cc3-c3cn(C)nc3C)C2=O)c1 [Example 203, (S)-2-(Cyclopropyl(4-methoxypyridin-2-yl)methyl)-5-(1,3-dimethyl-1H-pyrazol-4-yl)-7-((2-methyl-1H-imidazol-1-yl)methyl)-3,4-dihydroisoquinolin-1(2H)-one] |
| 2000 nM | Cc1nccn1Cc1cc2c(c(-c3cn(C)nc3C(F)(F)F)c1)CCN(CC1CCCCO1)C2=O (centres unmarked) [Example 169, 7-((2-Methyl-1H-imidazol-1-yl)methyl)-5-(1-methyl-3-(trifluoromethyl)-1H-pyrazol-4-yl)-2-((tetrahydro-2H-pyran-2-yl)methyl)-3,4-dihydroisoquinolin-1(2H)-one] |
| < 50 nM | Cc1cncc(CN2CCc3c(cc(Cn4ccnc4C)cc3-c3cn(C)nc3C(F)(F)F)C2=O)c1 [Example 157, 7-((2-Methyl-1H-imidazol-1-yl)methyl)-5-(1-methyl-3-(trifluoromethyl)-1H-pyrazol-4-yl)-2-((5-methylpyridin-3-yl)methyl)-3,4-dihydroisoquinolin-1(2H)-one] |
| < 50 nM | Cc1cc([C@H](C)N2CCc3c(cc(Cn4ccnc4C)cc3-c3cn(C)nc3C)C2=O)ccc1F [Example 146, (S)-5-(1,3-Dimethyl-1H-pyrazol-4-yl)-2-(1-(4-fluoro-3-methylphenyl)ethyl)-7-((2-methyl-1H-imidazol-1-yl)methyl)-3,4-dihydroisoquinolin-1(2H)-one] |
| 3860 nM | Cc1nccn1Cc1cc2c(c(-c3cn(C)nc3C(F)(F)F)c1)CCN(c1ccccc1OC(C)C)C2=O [Example 256, 2-(2-Isopropoxyphenyl)-7-((2-methyl-1H-imidazol-1-yl)methyl)-5-(1-methyl-3-(trifluoromethyl)-1H-pyrazol-4-yl)-3,4-dihydroisoquinolin-1(2H)-one] |
| < 50 nM | CCc1ccnc(CN2CCc3c(cc(Cn4ccnc4C)cc3-c3cn(CC)nc3C(F)(F)F)C2=O)c1 [Example 21, 5-(1-Ethyl-3-(trifluoromethyl)-1H-pyrazol-4-yl)-2-((4-ethylpyridin-2-yl)methyl)-7-((2-methyl-1H-imidazol-1-yl)methyl)-3,4-dihydroisoquinolin-1(2H)-one] |

Same assay, conditions: Homo sapiens, MV4-11, 120 h, read-out: GI50 on cellular proliferation of MV4:11 human cancer cell lines

| SMILES | GI50 |
| --- | --- |
| COc1ccnc(CN2CCc3c(cc(Cc4ncc[nH]4)cc3-c3cn(C)nc3C(F)(F)F)C2=O)c1 [Example 132, 7-((1H-Imidazol-2-yl)methyl)-2-((4-methoxypyridin-2-yl)methyl)-5-(1-methyl-3-(trifluoromethyl)-1H-pyrazol-4-yl)-3,4-dihydroisoquinolin-1(2H)-one] | < 50 nM |
